# Data from ChEMBL document CHEMBL5244246, “Recent advances in chemistry and bioactivity of marine cyanobacteria Moorea species” (Eur J Med Chem, 2020).
# What was measured:
# L1210 = assay: Cytotoxicity against mouse L1210 cells assessed as inhibition of cell growth; type: functional, cell-based
# [1] = Toxicity in shrimp assessed as lethal dose; details: palaemon paucidens
# [2] = biological target: Protein kinase C delta type (Homo sapiens, UniProt Q05655); assay: Inhibition of [3H]-PDBu binding to PKCdelta C1B domain (unknown origin) by competitive binding assay
# HCT-116 = assay: Cytotoxicity against human HCT-116 cells assessed as inhibition of cell growth; type: functional, cell-based
# N2a = assay: Cytotoxicity against mouse Neuro2a cells assessed as inhibition of cell growth; type: functional, cell-based; details: Mus musculus, N2a
# NCI-H460 = assay: Cytotoxicity against human NCI-H460 cells; type: functional, cell-based
# Homo sapiens [3] = organism: Homo sapiens; assay: Inhibition of Voltage-gated sodium channel (unknown origin) at 3 ug/ml incubated for 18 hrs by cell-based bioassay relative to control; details: dose 3.0 µg/ml
# [4] = Toxicity in goldfish assessed as survival rate at 5 ppm measured after 90 mins relative to control; details: carassius auratus
# [5] = Toxicity in goldfish assessed as lethal dose; details: carassius auratus
# Tubulin (Homo sapiens) = Tubulin (Homo sapiens) (UniProt P68371+Q9H4B7+P0DPH7+P68366+Q13509+Q71U36+P04350+Q3ZCM7+P07437+P68363+Q9BQE3+Q6PEY2+Q13885+Q9BVA1+Q9BUF5); assay: Inhibition of colchicine binding to tubulin (unknown origin) assessed inhibition rate at 5 uM relative to control; type: protein-complex assay
# Tubulin = assay: Inhibition of tubulin polymerization (unknown origin) by tubulin polymerization assay; type: protein-complex assay, Homo sapiens
# CA46 = assay: Cytotoxicity against human CA46 cells assessed as inhibition of cell growth; type: functional, cell-based
# [6] = Toxicity in brine shrimp assessed as lethal dose; details: artemia salina
# [7] = Antiproliferative activity against CHO-AUXB1 cells; type: toxicity, cell-based; details: Chinese hamster (Cricetulus griseus)
# [8] = Toxicity in brine shrimp; details: artemia salina; read-out: ED50 (the source's name)
# HeLa [9] = assay: Cytotoxicity against human HeLa cells assessed as inhibition of cell growth incubated for 72 hrs by MTT assay; type: functional, cell-based
# [10] = Toxicity in brine shrimp assessed as lethality at 10 ppm relative to control; details: artemia salina, read-out: Activity
# [11] = Toxicity in goldfish assessed as lethality at 5 ppm relative to control; details: carassius auratus, read-out: Activity
# A549 = assay: Cytotoxicity against human A549 cells assessed as cell growth inhibition; type: functional, cell-based
# HT-29 = assay: Cytotoxicity against human HT-29 cells assessed as cell growth inhibition; type: functional
# MDA-MB-231 = assay: Cytotoxicity against human MDA-MB-231 cells assessed as cell growth inhibition; type: functional
# [12] = test system: Mycobacterium tuberculosis; assay: Antimycobacterial activity against Mycobacterium tuberculosis H37Rv assessed as inhibition of bacterial growth at 12.5 ug/ml relative to control; type: functional
# Neuro2a = assay: Inhibition of sodium channel in mouse Neuro2a cells; type: cell-based
# Echinoidea = assay: Antiproliferative activity against sea urchin fertilized embryo assessed as inhibition of cell division; type: functional, organism-based
# U-251 = assay: Cytotoxicity against human U-251MG cells; type: functional, cell-based
# P388 = assay: Cytotoxicity against mouse P388 cells assessed as inhibition of cell growth; type: functional, cell-based
# PC-3 = assay: Cytotoxicity against human PC-3 cells assessed as cell growth inhibition; type: functional, cell-based
# HCT-8 = assay: Cytotoxicity against human HCT-8 cells assessed as cell growth inhibition; type: functional, cell-based
# SK-OV-3 = assay: Cytotoxicity against human SK-OV-3 cells assessed as cell growth inhibition; type: functional, cell-based
# Plasmodium falciparum = assay: Antimalarial activity against Plasmodium falciparum assessed as growth inhibition; type: functional, organism-based
# Pseudomonas aeruginosa = assay: Antibacterial activity against Pseudomonas aeruginosa PA01 assessed as inhibition of swarming at 100 ppm relative to control; type: functional
# HeLa [13] = assay: Cytotoxicity against human HeLa cells assessed as inhibition of cell growth incubated for 48 hrs by WST-8 colorimetric assay; type: functional, cell-based
# MCF7 = assay: Cytotoxicity against human MCF7 cells assessed as inhibition of cell growth; type: functional, cell-based
# PANC-1 = assay: Cytotoxicity against human PANC-1 cells; type: functional, cell-based
# [14] = Toxicity in mouse assessed as lethal dose; details: in vivo
# LoVo = assay: Cytotoxicity against human LoVo cells; type: functional, cell-based
# KB = assay: Cytotoxicity against human KB cells; type: functional, cell-based
# Homo sapiens [15] = organism: Homo sapiens; assay: Activation of Voltage-gated sodium channel (unknown origin) at 3 ug/ml incubated for 18 hrs by cell-based bioassay relative to control; details: dose 3.0 µg/ml
# Nitzschia amabilis = assay: Growth inhibition of marine diatom assessed as inhibition; type: functional, organism-based
# [16] = read-out: LD50 (the source's name)
# Sequence of Protein kinase C delta type (Q05655 whole entry, the tested form may be a part): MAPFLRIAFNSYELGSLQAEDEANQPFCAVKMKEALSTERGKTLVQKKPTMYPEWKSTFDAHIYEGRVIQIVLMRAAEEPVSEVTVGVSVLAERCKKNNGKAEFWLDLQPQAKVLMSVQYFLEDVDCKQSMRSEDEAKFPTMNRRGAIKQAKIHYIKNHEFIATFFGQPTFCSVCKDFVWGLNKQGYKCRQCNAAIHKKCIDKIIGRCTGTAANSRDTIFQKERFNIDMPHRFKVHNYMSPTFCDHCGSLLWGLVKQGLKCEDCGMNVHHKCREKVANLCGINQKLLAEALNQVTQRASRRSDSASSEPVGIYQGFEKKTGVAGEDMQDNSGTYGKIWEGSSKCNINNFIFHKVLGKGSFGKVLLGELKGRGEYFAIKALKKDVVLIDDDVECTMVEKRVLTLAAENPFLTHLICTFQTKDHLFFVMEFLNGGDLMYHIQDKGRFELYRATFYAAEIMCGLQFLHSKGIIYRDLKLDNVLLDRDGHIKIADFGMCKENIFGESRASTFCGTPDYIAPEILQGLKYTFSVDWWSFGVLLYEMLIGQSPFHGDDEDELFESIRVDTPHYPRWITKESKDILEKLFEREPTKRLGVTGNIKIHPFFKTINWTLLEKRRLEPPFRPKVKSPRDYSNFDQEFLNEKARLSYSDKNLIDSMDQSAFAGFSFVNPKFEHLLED
structure (smiles),measurement,setting,value
C=C[C@@](C)(CCC=C(C)C)c1ccc2c3c(c[nH]c13)C[C@@H](CO)NC(=O)[C@@H](C(C)C)N2C,IC50,L1210,20.4 µM
same,LD100,[1],7.5 mg/kg
same,Ki,[2],0.017 µM
CCCCC(C)C1C[C@@H](O)CCC[C@H](O)C[C@@H](O)C[C@@H](O)CCCC(O)CCCC(O)CCCC(O)CCCC(O)CCCC(O)CC(C)CC(=O)O1 (some centres not stated),IC50,HCT-116,9.9 µM
C=C(CCNC(=O)CC/C=C/C[C@H](CCCCCCCC)OC)[C@@]12O[C@H]1[C@H](O[C@H]1OC[C@H](OC)[C@@H](O)[C@@H]1OC)C=C(C)C2=O,IC50,N2a,4 µM
same,IC50,NCI-H460,4 µM
same,inhibition,Homo sapiens [3],28%
C#CCCC/C(=C/Cl)CCC(C)/C=C/CCC(=O)NCC/C(=C\C(=O)N1C(=O)C=C[C@@H]1C)OC (some centres not stated),IC50,N2a,15 µM
same,IC50,NCI-H460,15 µM
same,"survival at 1.5 h, 5 ppm",[4],0%
C=C[C@@](C)(CCC=C(C)C)c1ccc2c3c(c[nH]c13)C[C@@H](CO)NC(=O)[C@H](C(C)C)N2C,IC50,L1210,8.1 µM
same,LD100,[1],5 mg/kg
same,Ki,[2],0.00011 µM
C=C1CC(=O)N[C@@H](C)C(=O)N(C)[C@@H](C(C)C)C(=O)NCC(=O)O[C@@H](/C(C)=C/C(C)=C/C(C)(C)C)[C@@H]1C [ANTILLATOXIN],LC50,[5],0.1 µM
C=CCC(CC/C(C)=C/C=C/CC/C=C\C1CSC([C@@H]2C[C@@H]2C)=N1)OC (some centres not stated),IC50,L1210,0.009 µM
same,inhibition,Tubulin (Homo sapiens),94%
same,IC50,Tubulin,0.69 µM
same,IC50,CA46,0.2 µM
same,LC50,[6]; read-out: LC50,0.003 mg/L
same,IC50,[7],0.0068 mg/L
O=CNC(CCCC#C/C=C\Cl)CCC/C=C\C=C(Cl)Cl (configuration not stated),LC50,[6]; [16],1.7 mg/L
same,LC50,[8],1 mg/L
CC/C(=C\C(=O)N(C)/C=C\CCC[C@H]1CC[C@H](C)C[C@@H](C)C(=O)N(C)[C@@H](CC(C)C)C(=O)O1)OC,IC50,HeLa [9],2.5 µM
CC[C@H](C)[C@H]1C(=O)N2CCC[C@H]2C(=O)O[C@H](C(C)(C)C)C[C@@H](C)C/C=C/C2=N[C@@H](CCC(=O)N[C@@H](Cc3ccc(OC)cc3)C(=O)N(C)[C@@H](C)C(=O)N1C)CS2 [APRATOXIN E],IC50,HCT-116,0.1 µM
C=CCCC/C(=C/Cl)CCC(C)/C=C/CCC(=O)NCC/C(=C\C(=O)N1C(=O)C=C[C@@H]1C)OC (some centres not stated),IC50,N2a,15 µM
same,IC50,NCI-H460,15 µM
same,mortality at 10 ppm,[10],25%
same,mortality at 5 ppm,[11],100%
CCCCCCC[C@@H](C/C=C/CCC(=O)N(C)C/C(=C\Cl)C/C(=C\C(=O)N1CC=CC1=O)OC)OC,GI50,A549,40 µM
same,GI50,HT-29,40 µM
same,GI50,MDA-MB-231,40 µM
same,inhibition at 12.5 µg/mL,[12],10%
CCCCCCC[C@@H](C/C=C/CCC(=O)N(C)C/C(=C/Cl)C/C(=C\C(=O)N1CC(OC)=CC1=O)OC)OC,GI50,A549,40 µM
same,GI50,HT-29,40 µM
same,GI50,MDA-MB-231,40 µM
same,inhibition at 12.5 µg/mL,[12],10%
C=C[C@@H]1CSC(C[C@@H](C)[C@@H](C)C[C@H](C)CCN(C)C(=O)[C@H](C)CC)=N1,LC50,[6]; read-out: LC50,0.17 µM
same,LC50,[5],0.7 µM
same,INH,Neuro2a,1 nM
same,IC50,Echinoidea,0.025 µM
CCCC[C@@H](C)C[C@@H](C)C(=O)N(C)[C@@H](Cc1ccc(OC)cc1)C(=O)N[C@H](C(=O)N(C)[C@H](C(=O)N1CCC[C@H]1C(=O)N1C(=O)C=C[C@@H]1C)C(C)C)[C@@H](C)OC(C)=O,IC50,U-251,0.0368 µM
CCCCCCC[C@@H](C/C=C/CCC(=O)N(C)C/C(=C/Cl)C/C(=C\C(=O)N1CC(O)CC1=O)OC)OC (some centres not stated),GI50,A549,40 µM
same,GI50,HT-29,40 µM
same,GI50,MDA-MB-231,40 µM
same,inhibition at 12.5 µg/mL,[12],10%
CC[C@@H](C)[C@@H]1NC(=O)CN(C)C(=O)[C@@H](Cc2ccccc2)N(C)C(=O)[C@H](C)NC(=O)[C@@H]([C@@H](C)CC)OC(=O)/C(C)=C/C[C@H](O)[C@@H](C)C[C@H]([C@@H](C)CC)OC(=O)[C@H](C)N(C)C1=O,IC50,A549,0.0021 µM
same,IC50,P388,0.0021 µM
same,IC50,PC-3,0.0021 µM
same,IC50,HCT-8,0.0021 µM
same,IC50,SK-OV-3,0.0021 µM
same,IC50,Plasmodium falciparum,0.29 µM
same,inhibition at 100 µg/mL,Pseudomonas aeruginosa,49%
C=C[C@@](C)(CCC=C(C)C)c1ccc2c3c1NC(=O)[C@@]3(O)C[C@@H](CO)NC(=O)[C@@H](C(C)C)N2C,IC50,L1210,98 µM
same,LD33,[1],89 mg/kg
same,Ki,[2],1.4 µM
CC[C@@H](C)[C@H]1C(=O)N2CCC[C@H]2C(=O)O[C@H](C(C)(C)C)C[C@@H](C)C[C@H](O)[C@H](C)C2=N[C@@H](/C=C(\C)C(=O)N[C@@H](Cc3ccc(OCCCCCCCN=[N+]=[N-])cc3)C(=O)N(C)[C@@H](C)C(=O)N1C)CS2,IC50,HeLa [13],0.08 µM
C=CCC(CC/C=C/C=C/CC/C=C\C1CSC([C@@H]2C[C@@H]2C)=N1)OC (some centres not stated),IC50,MCF7,0.34 µM
same,inhibition,Tubulin (Homo sapiens),53%
same,LC50,[6]; [16],15.6 µM
CCCC[C@@H](C)C[C@@H](C)C(=O)N(C)[C@@H](Cc1ccc(OC)cc1)C(=O)N[C@H](C(=O)N(C)[C@H](C(=O)N1C[C@@H](O)C[C@H]1C(=O)N1C(=O)C=C[C@@H]1C)C(C)C)[C@@H](C)OC(C)=O,IC50,PANC-1,0.00032 µM
CCCCCCCC[C@@H](C/C=C/CCC(=O)NC/C(=C/Cl)[C@]12O[C@H]1[C@H](OC(C)=O)CCC2=O)OC,IC50,N2a,4 µM
same,IC50,NCI-H460,4 µM
same,inhibition,Homo sapiens [3],28%
CC[C@H](C)[C@@H]1NC(=O)CNC(=O)c2csc(n2)[C@H](C(C)(C)O)OC(=O)C(C)(C)[C@H](CCCC(C)(Cl)Cl)OC(=O)c2csc1n2 [LYNGBYABELLIN A],IC50,HCT-116,0.0521 µM
same,LD,[14],2.4 mg/kg
CC[C@@H](C)[C@H]1C(=O)N2CCC[C@H]2C(=O)O[C@H](C(C)(C)C)C[C@@H](C)C[C@H](O)[C@H](C)C2=N[C@@H](/C=C(\C)C(=O)N[C@@H](Cc3ccc(OC)cc3)C(=O)N(C)[C@@H](C)C(=O)N1C)CS2,IC50,N2a,1 µM
same,IC50,HeLa [13],0.19 µM
same,IC50,LoVo,0.00036 µM
same,IC50,KB,0.00036 µM
CCCCCCCC[C@@H](C/C=C/CCC(=O)NC/C(=C/Cl)C1=CCC[C@@H](OC(C)=O)C1=O)OC,IC50,N2a,4 µM
same,IC50,NCI-H460,4 µM
same,Activity,Homo sapiens [15],19%
same,inhibition,Homo sapiens [3],28%
CCCCCCC[C@@H](C/C=C/CCC(=O)O)OC,GI50,A549,40 µM
same,GI50,HT-29,40 µM
same,GI50,MDA-MB-231,40 µM
same,inhibition at 12.5 µg/mL,[12],65%
O=CNC(CCCC#CC=C(Cl)Cl)CCCCCCC(Cl)Cl (configuration not stated),LC50,[6]; [16],1.7 mg/L
same,LC50,[8],1 mg/L
CC[C@@H](C)[C@H]1C(=O)N2CCC[C@H]2C(=O)O[C@H](C(C)(C)C)C[C@@H](C)C[C@H](O)[C@@H](C)C2=N[C@@H](/C=C(\C)C(=O)N[C@@H](Cc3ccc(OC)cc3)C(=O)N(C)[C@@H](C)C(=O)N1C)CS2,IC50,HeLa [13],0.19 µM
CO[C@@H](CC[C@H](C)[C@@H](O)[C@@H](C)/C=C/C1=C(C(=O)O[C@@H]2CC(=O)O[C@@H]2C)C(=O)[C@H](C)CC1(C)C)c1cc(O)ccc1Br,IC50,L1210,4.6 mg/L
same,IC50,Nitzschia amabilis,1.2 mg/L
C=C[C@@](C)(CCC=C(C)C)c1ccc2c3c1NC(=O)[C@@]3(O)C[C@@H](CO)NC(=O)[C@@H](C(C)C)N2,IC50,L1210,321 µM
same,LD33,[1],25 mg/kg
same,Ki,[2],0.94 µM
O=CNC(CCCC#CC=C(Cl)Cl)CCC/C=C/CC(Cl)Cl (configuration not stated),LC50,[6]; [16],1.7 mg/L
same,LC50,[8],1 mg/L
